Measured values from US20100272811A1 (priority 2008, published 2010).
Like-named read-outs stand apart in the source and are kept apart here.

Experiments:
[1] = Pharmacokinetic profile of trospium powder formulations administered to rats via insufflation; format: in vivo, Sprague-Dawley rats; details: rat, intratracheal insufflation, approx. 200 μg trospium, plasma, mean ± standard error
Procedure: Male Sprague-Dawley rats (weight 400±50 grams) were administered various powder formulations of trospium by insufflation. The rats were divided into four groups of four rats as follows: • Group A—Insufflated intratracheally with Leucine/Trospium/DPPC containing approximately 200 μg Trospium • Group B—Insufflated intratracheally with Leucine/Trospium/NaSaccharin containing approximately 200 μg Trospium • Group C—Insufflated intratracheally with Leucine/Citrate/NaSaccharin/Trospium containing approximately 200 μg Trospium • Group D—Insufflated intratracheally with Leucine/Trospium containing approximately 200 μg Trospium The formulations tested are described in Table 2.
Rats were anesthetized using inhaled Isofluorane. Drug powder was then intratracheally insufflated into each rat. All animals were allowed food and water ad libitum between blood collection time points. Blood samples were collected by a lateral tail vein after anesthesia. A syringe without an anticoagulant was used for blood collection and the whole blood was transferred to tubes containing K2 EDTA (MIRCOTAINER®; MFG# BD365974). The blood samples were processed (the tubes are inverted 15-20 times and centrifuged for 2 minutes at >14,000 g's to separate plasma). The plasma samples prepared in this manner were transferred to labeled plain tubes (MICROTAINER®; MFG# BD5962) and stored frozen at <−70° C. 250 ul of whole blood was obtained for each time point. Sample collection times were pre-insufflation, 2.5, 5.0, 7.5, 10, 15, 30, 60 and 120 minutes after insufflation.
Plasma samples were analyzed for trospium using an Ionspray LC/MS/MS (Liquid Chromatography coupled with Mass Spectrometery). Briefly, 100 ul of standard (trospium standard solutions in rat plasma), control or test samples were added to the wells of a 96-well plate. The trospium standard solutions were prepared by adding 100 ul of 1 ug/ml trospium chloride (in methanol) with rat plasma to yield a nominal concentration of 4000 pg/ml. Standard solutions in rat plasma were prepared as follows:
Controls were prepared by adding 1 ug/ml trospium chloride in methanol to rat plasma to yield concentrations of 2500 pg/ml, 800 pg/ml and 200 pg/ml of internal standard solution (2.5 ng/ml clidinium bromide in water) were added to all wells except those containing blank plasma samples. 20 ul of 50 mM ammonium acetate (pH 9.0) solution and 350 ul acetonitrile were added to all wells and the plate was shaken on an orbital shaker for 1-2 minutes. The plate was centrifuged at 2000×g for 5-7 minutes. The supernatant was removed added onto an Agilent 96-well plate and concentrated to dryness using a Speed Vacuum. The dry sample were then reconstituted with 100 ul of 50:50 methanol:water and analyzed by LC/MS/MS.
Quantitation was performed using a weighted (1/×) linear regression analysis generated from standard samples.

[2] = background statement; cited from earlier work

O=C(O[C@H]1C[C@H]2CC[C@@H](C1)[N+]21CCCC1)C(O)(c1ccccc1)c1ccccc1 [Trospium chloride, endo-3-[(hydroxydiphenyl-acetyl)oxy]spiro[8-azoniabicyclo[3.2.1]octane-8,-1′-pyrrolidinium]chloride, reference compound]
AUC ([1]; male, Sprague-Dawley, inhaled or intranasal, 200 ug, read-out: AUC (converted)): 24.9 ng·h/mL
Cmax ([1]; male, Sprague-Dawley, inhaled or intranasal, 200 ug, read-out: Cmax): 71.2 ± 6.26 ng/mL
Tmax ([1]; male, Sprague-Dawley, inhaled or intranasal, 200 ug, read-out: Tmax (converted)): 6.31 min
aqueous solubility [2]: relatively high

O=C(OC1C[C@H]2CC[C@@H](C1)[N+]21CCCC1)C(O)(c1ccccc1)c1ccccc1.O=C1NS(=O)(=O)c2ccccc21 (stereo partly drawn) [Trospium saccharin complex]
AUC [1]: 18.37 ± 1.28 ng·h/mL
Cmax [1]: 43.50 ± 5.32 ng/mL
Tmax [1]: 9.38 ± 1.40 min
solubility (30% ethanol with inline heating at 55° C.): greater than 4 mg/ml
soluble in water (water at room temperature): less than 0.4 mg/ml
